ChEMBL document CHEMBL6078706, “Deciphering the Comprehensive Structure-Activity Relationship of Sunshinamide for Breast Cancer Therapy through Dual Modulation of Apoptotic and Ferroptotic Pathways via TrxR1 and Gpx4 Inhibition” (J Med Chem, 2024)
The source made the active and inactive calls. The calls are words filed in the database; no cut-off is given here.

Assays:
[1] = test system: HEK293; assay: Antiproliferative activity against human HEK293 cells assessed as cell viability upto 50 nM incubated for 48 hrs by MTT assay; type: toxicity, cell-based; settings: hek293, 48 h, 0.05 µM
[2] = target: T1, Thioredoxin reductase 1, cytoplasmic (Homo sapiens) (UniProt Q16881); assay: Inhibition of recombinant TRXR1 (unknown origin) assessed as reduction in DTNB incubated for 2 hrs in presence of NADPH by microplate reader analysis
T1 sequence (whole entry): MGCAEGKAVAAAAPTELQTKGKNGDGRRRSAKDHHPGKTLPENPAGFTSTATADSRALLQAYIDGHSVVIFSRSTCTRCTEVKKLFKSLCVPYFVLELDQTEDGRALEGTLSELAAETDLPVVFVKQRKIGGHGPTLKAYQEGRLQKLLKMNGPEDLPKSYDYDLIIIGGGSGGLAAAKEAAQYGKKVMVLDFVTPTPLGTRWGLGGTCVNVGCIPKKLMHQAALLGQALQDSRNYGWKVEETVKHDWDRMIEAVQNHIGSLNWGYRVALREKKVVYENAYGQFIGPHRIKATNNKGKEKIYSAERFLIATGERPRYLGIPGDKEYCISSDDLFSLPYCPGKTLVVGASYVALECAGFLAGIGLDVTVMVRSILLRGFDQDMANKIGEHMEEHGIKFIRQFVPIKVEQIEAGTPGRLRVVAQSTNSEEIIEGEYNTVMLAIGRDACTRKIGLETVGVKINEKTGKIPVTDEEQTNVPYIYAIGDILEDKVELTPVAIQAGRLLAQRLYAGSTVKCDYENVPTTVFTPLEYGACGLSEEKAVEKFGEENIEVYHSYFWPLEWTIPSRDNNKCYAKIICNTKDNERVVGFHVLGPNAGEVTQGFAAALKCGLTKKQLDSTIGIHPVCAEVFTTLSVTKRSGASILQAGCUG

[3] = test system: MDA-MB-468; assay: Effect on TRXR1 expression in human MDA-MB-468 cells at 25 nM incubated for 24 hrs by Western blot analysis; type: functional, cell-based
[4] = test system: MDA-MB-468; assay: Induction of ROS production in human MDA-MB-468 cells expressing TrxR1 assessed as reduction in ROS level at 25 nM incubated for 6 hrs by DCFH-DA staining based flow cytometry analysis; type: functional, cell-based
[5] = test system: MDA-MB-468; assay: Antiproliferative activity against human MDA-MB-468 cells expressing TrxR1 assessed as reduction in cell viability at 50 nM incubated for 48 hrs by MTT assay; type: functional, cell-based
[6] = test system: MDA-MB-468; assay: Induction of endoplasmic reticulum (ER) stress-mediated apoptosis in human MDA-MB-468 cells assessed as increase in p-PERK level at 25 nM measured after 12 hrs by Western blot analysis; type: functional, cell-based
[7] = test system: MDA-MB-468; assay: Induction of endoplasmic reticulum (ER) stress-mediated apoptosis in human MDA-MB-468 cells assessed as increase in phospho-eIF2alpha level at 25 nM measured after 12 hrs by Western blot analysis; type: functional, cell-based
[8] = test system: MDA-MB-468; assay: Induction of endoplasmic reticulum (ER) stress-mediated apoptosis in human MDA-MB-468 cells assessed as increase in ATF4 expression at 25 nM measured after 12 hrs by Western blot analysis; type: functional, cell-based
[9] = test system: MDA-MB-468; assay: Induction of endoplasmic reticulum (ER) stress-mediated apoptosis in human MDA-MB-468 cells assessed as increase in CHOP expression at 25 nM measured after 12 hrs by Western blot analysis; type: functional, cell-based
[10] = test system: MDA-MB-468; assay: Induction of endoplasmic reticulum (ER) stress-mediated apoptosis in human MDA-MB-468 cells assessed as reduction in CHOP expression at 25 nM measured for 12 hrs in presence of 4-PBA by Western blot analysis; type: functional, cell-based
[11] = test system: MDA-MB-468; assay: Induction of apoptosis in CHOP knockdown human MDA-MB-468 cells assessed as increase in caspase 3/7 activation at 25 nM measured at 12 hrs by Western blot analysis; type: functional, cell-based
[12] = test system: MDA-MB-468; assay: Induction of mitochondrial ROS generation in human MDA-MB-468 cells at 25 nM incubated for 6 hrs by MitoSOX dye staining based flow cytometry analysis; type: functional, cell-based
[13] = test system: MDA-MB-468; assay: Induction of ferroptosis in human MDA-MB-468 cells assessed as increase in cell viability at 25 nM incubated for 48 hrs in presence of Z-VAD; type: functional, cell-based
[14] = test system: MDA-MB-468; assay: Induction of ferroptosis in human MDA-MB-468 cells assessed as increase in cell viability at 25 nM incubated for 48 hrs in presence of ferrostatin-1; type: functional, cell-based
[15] = test system: MDA-MB-468; assay: Induction of ferroptosis in human MDA-MB-468 cells assessed as decrease in lipid peroxidation level at 25 nM incubated for 6 hrs in presence of ferrostatin-1 by C11-BODIPY staining based flow cytometry analysis; type: functional, cell-based
[16] = test system: MDA-MB-468; assay: Induction of ferroptosis in human MDA-MB-468 cells assessed as lipid peroxidation level by measuring fluorescence intensity at 25 nM incubated for 6 hrs in presence of ferrostatin-1 by C11-BODIPY staining based microscopic analysis; type: functional, cell-based
[17] = test system: MDA-MB-468; assay: Induction of ferroptosis in human MDA-MB-468 cells assessed as increase in 4-HNE level at 25 nM; type: functional, cell-based
[18] = test system: MDA-MB-468; assay: Induction of ferroptosis in human MDA-MB-468 cells assessed as decrease in MDA level at 25 nM in presence of ferrostatin-1; type: functional, cell-based
[19] = target: T2, Cystine/glutamate transporter (Homo sapiens) (UniProt Q9UPY5); assay: Inhibition of Xc- in human MDA-MB-468 cells assessed as decrease in glutamate release at 25 nM incubated for 12 hrs; type: cell-based
T2 sequence (whole entry): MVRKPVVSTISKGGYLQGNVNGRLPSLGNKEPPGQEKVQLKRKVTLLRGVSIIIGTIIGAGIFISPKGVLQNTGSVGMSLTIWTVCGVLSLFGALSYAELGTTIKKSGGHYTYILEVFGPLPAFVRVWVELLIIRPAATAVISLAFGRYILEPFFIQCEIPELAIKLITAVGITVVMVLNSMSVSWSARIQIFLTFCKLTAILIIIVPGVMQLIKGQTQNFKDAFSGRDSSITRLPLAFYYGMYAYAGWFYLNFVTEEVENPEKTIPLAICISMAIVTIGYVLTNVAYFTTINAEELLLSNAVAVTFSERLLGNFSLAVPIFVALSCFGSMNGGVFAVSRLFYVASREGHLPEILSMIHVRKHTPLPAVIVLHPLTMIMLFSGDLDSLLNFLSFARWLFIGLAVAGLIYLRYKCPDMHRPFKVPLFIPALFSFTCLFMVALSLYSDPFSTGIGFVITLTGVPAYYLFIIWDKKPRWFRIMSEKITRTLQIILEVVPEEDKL

[20] = target: T3, Phospholipid hydroperoxide glutathione peroxidase GPX4 (Homo sapiens) (UniProt P36969); assay: Inhibition of GPX4 in human MDA-MB-468 cells incubated for 12 hrs in presence of NADPH; type: cell-based; settings: dose 25.0 nM
T3 sequence (whole entry): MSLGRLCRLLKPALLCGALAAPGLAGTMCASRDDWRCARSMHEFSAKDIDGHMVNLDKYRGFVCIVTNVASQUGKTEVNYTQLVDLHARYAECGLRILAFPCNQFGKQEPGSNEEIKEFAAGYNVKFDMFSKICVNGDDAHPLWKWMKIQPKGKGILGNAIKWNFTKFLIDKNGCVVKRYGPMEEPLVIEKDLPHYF

[21] = test system: MDA-MB-468; assay: Antiproliferative activity against human MDA-MB-468 cells expressing GPX4 assessed as cell viability at 25 nM incubated for 48 hrs by MTT assay; type: functional, cell-based

inhibition [2] | inhibition [19] | inhibition [20] | SMILES | Activity [1] | Activity [3] | Activity [4] | Activity [5] | Activity [6] | Activity [7] | Activity [8] | Activity [9] | Activity [10] | Activity [11] | Activity [12] | Activity [13] | Activity [14] | Activity [15] | Activity [16] | Activity [17] | Activity [18] | further results
inactive | inactive | Dose-dependent-effect | CCCCCCC[C@@H]1CC(=O)N[C@H](Cc2ccccc2)C(=O)N[C@@H](CSC)C(=O)N[C@@H](CSC)C(=O)O1 | Non-toxic | inactive | Active | Active | inactive | inactive | inactive | inactive | inactive | Active | inactive | inactive | inactive | Active | Active | inactive | Active | Activity [21]: inactive
Active | inactive | Dose-dependent-effect | CCCCCCC[C@@H]1CC(=O)N[C@H](Cc2ccccc2)C(=O)N[C@H]2CSSC[C@H](NC2=O)C(=O)O1 | Non-toxic | inactive | Active | Active | Active | Active | Active | Active | Active | Active | Active | inactive | inactive | Active | Active | inactive | Active | Activity [21]: inactive
inactive | inactive | Dose-dependent-effect | CCCCCCC[C@@H](O)CC(=O)N[C@H](Cc1ccccc1)C(=O)N[C@H]1CSSC[C@@H](C(=O)O)NC1=O | Non-toxic | inactive | Active | Active | inactive | inactive | inactive | inactive | inactive | Active | inactive | inactive | inactive | Active | Active | inactive | Active | Activity [21]: inactive
